The text below walks through data of article PMC9487755 (Epigenetics, 2021).

One may read the IC50 as the midpoint of a concentration-inhibition curve. A word on the Kd: it is the concentration at which binding is half-saturated. Usually Km stands for the concentration of substrate that gives half-maximal velocity.

Where two headings read alike, the source gives them in different places. Some results are limits rather than exact numbers.

The target of one series is T1, C. difficile CamA (Clostridioides difficile, UniProt Q183J3).
T1 sequence (Q183J3 1-577): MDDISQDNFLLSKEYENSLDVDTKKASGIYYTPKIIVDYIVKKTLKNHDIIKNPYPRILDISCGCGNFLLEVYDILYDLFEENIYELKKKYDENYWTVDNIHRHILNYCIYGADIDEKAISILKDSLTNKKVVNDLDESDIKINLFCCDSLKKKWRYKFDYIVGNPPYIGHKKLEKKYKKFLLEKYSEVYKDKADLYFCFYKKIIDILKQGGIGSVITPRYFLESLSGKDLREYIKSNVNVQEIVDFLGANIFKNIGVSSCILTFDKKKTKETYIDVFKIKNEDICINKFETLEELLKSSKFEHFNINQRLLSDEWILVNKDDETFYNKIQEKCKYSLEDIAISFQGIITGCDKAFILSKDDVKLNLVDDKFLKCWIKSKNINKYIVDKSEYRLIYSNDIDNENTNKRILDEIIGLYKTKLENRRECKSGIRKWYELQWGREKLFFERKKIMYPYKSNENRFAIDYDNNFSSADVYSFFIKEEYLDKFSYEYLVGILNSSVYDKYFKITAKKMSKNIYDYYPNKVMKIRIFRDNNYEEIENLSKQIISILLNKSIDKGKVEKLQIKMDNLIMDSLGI
Briefly: CamA methylation inhibition assay. The series is classed as biochemical. The following applies: for Relative inhibition of CamA activity at a single inhibitor concentration: 50 μM inhibitor.

The target in series [1] is T2, CamA (Clostridioides difficile, UniProt Q183J3).
T2 sequence (Q183J3 1-577): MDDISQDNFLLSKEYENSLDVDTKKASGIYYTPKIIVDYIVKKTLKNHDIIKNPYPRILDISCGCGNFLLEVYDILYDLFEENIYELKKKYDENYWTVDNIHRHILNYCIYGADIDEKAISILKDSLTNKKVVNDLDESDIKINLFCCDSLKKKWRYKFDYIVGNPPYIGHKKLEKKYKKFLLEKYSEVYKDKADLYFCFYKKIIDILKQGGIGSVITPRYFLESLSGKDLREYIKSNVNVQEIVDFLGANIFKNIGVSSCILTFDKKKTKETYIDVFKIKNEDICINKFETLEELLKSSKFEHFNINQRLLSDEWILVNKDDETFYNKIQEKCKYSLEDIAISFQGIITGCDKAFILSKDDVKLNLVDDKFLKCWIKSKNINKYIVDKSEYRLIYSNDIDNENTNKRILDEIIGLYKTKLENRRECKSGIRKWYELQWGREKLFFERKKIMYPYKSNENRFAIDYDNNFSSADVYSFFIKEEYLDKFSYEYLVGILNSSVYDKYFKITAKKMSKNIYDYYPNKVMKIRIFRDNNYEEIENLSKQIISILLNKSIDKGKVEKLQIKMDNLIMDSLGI
In words: ITC binding of inhibitors to CamA.

The next series concerns E. coli Dam. The conditions noted are these: read-out: Km of SAM for E. coli Dam; cited from earlier work.
The next series deals with phage T4 Dam. The conditions noted are these: read-out: Km of SAM for phage T4 Dam; cited from earlier work.
In series [2] the target is T2, CamA. The conditions noted are these: cited from earlier work.
The target of a further series is M.TaqI. The following applies: read-out: KD of SAM for M.TaqI; cited from earlier work.
The next series deals with PRMT7. The conditions noted are these: read-out: IC50 PRMT7 activity; cited from earlier work.
The subject of series [3] is four human RNA adenine MTases and two bacterial DNA adenine MTases. Briefly: Selectivity: in vitro inhibition of other class I MTases. The series is classed as biochemical. The following applies: four human RNA adenine MTases and two bacterial DNA adenine MTases (Figure 5).
Series [4] deals with T3, CamA (DNA adenine methyltransferase, plasmid pXC2184) (Clostridioides difficile, UniProt Q183J3 1-577).
T3 sequence: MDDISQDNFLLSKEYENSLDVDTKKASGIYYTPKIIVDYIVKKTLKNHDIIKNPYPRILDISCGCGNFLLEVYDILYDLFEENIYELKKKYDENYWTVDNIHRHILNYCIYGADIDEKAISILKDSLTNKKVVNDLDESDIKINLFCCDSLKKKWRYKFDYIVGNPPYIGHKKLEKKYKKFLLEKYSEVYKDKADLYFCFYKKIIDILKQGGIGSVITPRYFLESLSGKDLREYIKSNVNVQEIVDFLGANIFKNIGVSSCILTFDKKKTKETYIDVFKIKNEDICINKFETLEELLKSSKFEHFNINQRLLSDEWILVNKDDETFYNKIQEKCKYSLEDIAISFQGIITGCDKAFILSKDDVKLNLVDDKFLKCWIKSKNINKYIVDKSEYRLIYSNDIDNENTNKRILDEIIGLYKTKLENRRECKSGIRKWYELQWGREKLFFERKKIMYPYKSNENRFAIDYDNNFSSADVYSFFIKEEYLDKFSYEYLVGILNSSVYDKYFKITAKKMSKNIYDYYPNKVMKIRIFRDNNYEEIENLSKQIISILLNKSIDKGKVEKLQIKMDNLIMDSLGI
In words: X-ray crystallography.

As to `CC(C)N(CCCNC(=O)Nc1ccc(C(C)(C)C)cc1)C[C@H]1O[C@@H](n2ccc3c(N)ncnc32)[C@H](O)[C@@H]1O` [EPZ004777], the “Relative inhibition of CamA activity at a single inhibitor concentration” value (“Relative inhibition of CamA activity” below) on C. difficile CamA is listed as “notable inhibition”.

On to `CC(C)N(C[C@H]1O[C@@H](n2cnc3c(N)ncnc32)[C@H](O)[C@@H]1O)[C@H]1C[C@@H](CCc2nc3cc(C(C)(C)C)ccc3[nH]2)C1` [EPZ5676, pinometostat], for which, at C. difficile CamA, the IC50 was greater than 250 µM and the “Relative inhibition of CamA activity” value is on record as “failed to inhibit CamA”. Further, the Kd on CamA [1] is greater than 50 µM.

On to `Nc1ncnc2c1ccn2[C@@H]1O[C@H]([C@H](O)c2ccccc2)[C@@H](O)[C@H]1O` [LLY-283], for which, on C. difficile CamA, the “Relative inhibition of CamA activity” value is given as “much weaker inhibition than sinefungin”.

With `C[S+](CC[C@H](N)C(=O)[O-])C[C@H]1O[C@@H](n2cnc3c(N)ncnc32)[C@H](O)[C@@H]1O` (stereo partly drawn) [SAM, S-adenosyl-L-methionine], the Km was 3 to 6 µM with E. coli Dam, 0.5 µM in the series on phage T4 Dam and greater than 17 µM on CamA [2] (read-out: Km of SAM for CamA). The Kd is 35 µM on CamA [2] (read-out: KD of SAM binding by CamA) and 2 µM on M.TaqI.

Turning to `NCCCSC[C@H]1O[C@@H](n2cnc3c(N)ncnc32)[C@H](O)[C@@H]1O` [SGC0911], the IC50 in the series on PRMT7 is 1 µM.

As to `CC(C)N(CCCNC(=O)Nc1ccc(C(C)(C)C)cc1)C[C@H]1O[C@@H](n2cc(Br)c3c(N)ncnc32)[C@H](O)[C@@H]1O` [SGC0946], at C. difficile CamA, the IC50 turned out to be 4.7 µM and the “Relative inhibition of CamA activity” value was “notable inhibition”. Also, the “Fold more potent inhibition of CamA (IC50) than EPZ004777” value on C. difficile CamA (SGC0946 vs. EPZ004777) is given as ~ 9 X. The same molecule came in with a Kd at CamA [1] of 6.3 µM. In addition, the “Fold stronger binding to CamA (KD) than EPZ004777” value at CamA [1] (SGC0946 vs. EPZ004777) is ~ 3 X. Moreover, the “in vitro inhibition against six distinct MTase enzymes” value in series [3] was ~ 50%.

For `CC1=C(C)C(=O)C(C(C)(C)CC(=O)N(CCCCSC[C@H]2O[C@@H](n3cnc4c(N)ncnc43)[C@H](O)[C@@H]2O)Cc2cccc(-c3ccc(Cl)cc3)c2)=C(C)C1=O` [SGC3027], the “Relative inhibition of CamA activity” value on C. difficile CamA is given as “does not possess in vitro inhibitory activity”.

B1: 14-bp CamA co-crystallization duplex (dsDNA)
DNA 1: TTCAAAAAGTCCCA
DNA 2: ATGGGACTTTTTGA
B1: the binding result in series [4] is “binds”.
